Results on 42 compounds are retold here after patent publication US6110962A, “11-aryl-benzo[B]naphtho[2,3-D]furans and 11-aryl-benzo[B]naphtho[2,3-D]thiophenes useful in the treatment of insulin resistance and hyperglycemia” (American Home Products Corporation, priority 1999, dated 2000).

Each structure is given as a SMILES string.

This assay concerns rat hepatic microsomal PTPases. To be noted: PTPase activity, compound at 50 μM.
For the compound `Oc1ccc(-c2c3ccccc3cc3sc4ccccc4c23)cc1I` [Example 27, 4-(Benzo[b]naphtho[2,3-d]thiophen-11-yl)-2-iodo-phenol], the “% Change from Control” value is listed as -35.78%.

Turning to `N#Cc1c2ccccc2c(-c2cc(Br)c(OCC(=O)O)c(Br)c2)c2c1sc1ccccc12` [Example 88], the “% Change from Control” value is reported as -67.03%.

Take `O=P(O)(O)COc1ccc(-c2c3ccccc3cc3sc4ccccc4c23)cc1` [Example 163, [4-(Benzo[b]naphtho[2,3-d]thiophen-11-yl)-phenoxymethyl]-phosphonic acid]: the “% Change from Control” value is -38.40%.

Turning to `CC(=O)Oc1ccc(-c2c3ccccc3cc3sc4ccccc4c23)cc1` [Example 34, 4-(Benzo[b]naphtho[2,3-d]thiophen-11-yl-phenol)acetate ester], the “% Change from Control” value is reported as -3.40%.

In the case of `N#Cc1cc(-c2c3ccccc3cc3sc4ccccc4c23)cc(C#N)c1O` [Example 32, 5-Benzo[b]naphtho[2,3-d]thiophen-11-yl-2-hydroxy-isophthalonitrile], the “% Change from Control” value is reported as -58.12%.

For `O=C(O)COc1c(I)cc(-c2c3ccccc3cc3sc4ccccc4c23)cc1I` [Example 83, (4-Benzo[b]naphtho[2,3-d]thiophen-11-yl-2,6-diiodo-phenoxy)-acetic acid], the “% Change from Control” value was -57.89%.

For `COc1c(C#N)cc(-c2c3ccccc3cc3sc4ccccc4c23)cc1C#N` [Example 30, 5-Benzo[b]naphtho[2,3-d]thiophen-11-yl-2-methoxy-isophthalonitrile], the “% Change from Control” value was 1.00%.

For the compound `O=C(O)COc1c(Br)cc(-c2c3c(c(Br)c4ccccc24)S(=O)(=O)c2ccccc2-3)cc1Br` [Example 186], the “% Change from Control” value was -74.87%.

In the case of `O=C(O)COc1cc(Br)c(-c2c3ccccc3c(Br)c3sc4ccccc4c23)cc1OCC(=O)O` [Example 95], the “% Change from Control” value is given as -75.45%.

For `Oc1c(Br)cc(-c2c3ccccc3c(C(F)(F)F)c3sc4ccccc4c23)cc1Br` [Example 61, 2,6-Dibromo-4-(6-trifluoromethyl-benzo[b]naphtho[2,3-d]thiophen-11-yl)-phenol], the “% Change from Control” value is given as -54.82%.

Consider `COc1ccc(-c2c3ccccc3cc3sc4ccccc4c23)cc1` [Example 23, 11-(4-Methoxy-phenyl)-benzo[b]naphtho[2,3-d]thiophene], for which the “% Change from Control” value is -8.92%.

On to `Oc1c(I)cc(-c2c3ccccc3cc3sc4ccccc4c23)cc1I` [Example 26, 4-(Benzo[b]naphtho[2,3-d]thiophen-11-yl)-2,6-diiodo-phenol], for which the “% Change from Control” value is listed as -8.68%.

Take `O=C(O)COc1ccc(-c2c3ccccc3cc3sc4cc(OCC(=O)O)ccc4c23)cc1` [Example 74, [11-(4-Carboxymethoxy-phenyl)-benzo[b]naphtho[2,3-d]thiophen-3-yloxy]-acetic acid]: the “% Change from Control” value was -21.61%.

Consider `O=C(O)COc1ccc(-c2c3ccccc3cc3sc4ccccc4c23)cc1` [Example 84, [4-Benzo[b]naphtho[2,3-d]thiophen-11-yl-phenoxy]-acetic acid], for which the “% Change from Control” value is given as -73.91%.

In the case of `Oc1ccc(-c2c3ccccc3cc3sc4ccccc4c23)cc1` [Example 14, 4-Benzo[b]naphtho[2,3-d]thiophen-11-yl-phenol], the “% Change from Control” value is given as -34.19%.

Take `COc1c(Br)cc(-c2c3ccccc3c(Br)c3sc4ccccc4c23)cc1Br` [Example 22]: the “% Change from Control” value was -16.83%.

Take `O=C(NO)[C@@H](Cc1ccccc1)Oc1c(Br)cc(-c2c3ccccc3c(Br)c3sc4ccccc4c23)cc1Br` [Example 167]: the “% Change from Control” value is reported as -16.99%.

In the case of `COc1ccc(C(=O)c2c(Cc3ccccc3)sc3ccccc23)cc1` [Example 7, (2-Benzyl-benzo[b]thiophen-3-yl)-(4-methoxy-phenyl)-methanone], the “% Change from Control” value was found to be 1.03%.

On to `COc1c(C)cc(-c2c3ccccc3c(C)c3sc4ccccc4c23)cc1C` [Example 24, 11-(4-Methoxy-3,5-dimethyl-phenyl)-6-methyl-benzo[b]naphtho[2,3-d]thiophene], for which the “% Change from Control” value is 3.16%.

`CCOP(=O)(OCC)C(CCc1ccccc1)Oc1c(Br)cc(-c2c3ccccc3c(Br)c3sc4ccccc4c23)cc1Br` (stereo not drawn) [Example 161, {1-2,6-Dibromo-4-(6-bromo-benzo[b]naphtho[2,3-d]thiophen-11-yl)-phenoxyl-3-phenyl-propyl}-phosphonic acid, diethyl ester]: the “% Change from Control” value is listed as -8.03%.

Take `O=C(O)COc1cc(-c2c3ccccc3c(Br)c3sc4ccccc4c23)cc(Br)c1OCC(=O)O` [Example 94]: the “% Change from Control” value is given as -95.80%.

Take `O=C(O)COc1ccc(-c2c3ccccc3cc3oc4ccccc4c23)cc1` [Example 213, 4-(Benzo[b]naphtho[2,3-d]furan-11-yl-phenoxy)-acetic acid]: the “% Change from Control” value is listed as -54.40%.

Turning to `O=P(O)(O)C(CCc1ccccc1)Oc1c(Br)cc(-c2c3ccccc3c(Br)c3sc4ccccc4c23)cc1Br` (stereo not drawn) [Example 164], the “% Change from Control” value was -70.32%.

Turning to `O=C(O)COc1ccc2c(c1)sc1cc3ccccc3c(-c3ccc(O[C@H](CCN4C(=O)c5ccccc5C4=O)C(=O)O)cc3)c12` [Example 149], the “% Change from Control” value was -59.82%.

As to `CS(=O)(=O)Oc1ccc(-c2c3ccccc3c(I)c3sc4ccccc4c23)cc1` [Example 47, Methanesulfonic acid 4-(6-Iodo-benzo[b]naphtho[2,3-d]thiophen-11-yl)-phenylester], the “% Change from Control” value was -3.50%.

On to `O=C(O)[C@@H](CCN1C(=O)c2ccccc2C1=O)Oc1c(Br)cc(-c2c3ccccc3c(Br)c3sc4ccccc4c23)cc1Br` [Example 147, (R)-2-[2,6-Dibromo-4-(6-bromo-benzo[b]naphtho[2,3-d]thiophen-11-yl)-phenoxy]-4-(1,3-dioxo-1,3-dihydro-isoindol-2-yl)-butyric acid], for which the “% Change from Control” value is -66.60%.

On to `Cc1cc(-c2c3ccccc3c(C)c3sc4ccccc4c23)cc(C)c1O` [Example 25, 2,6-Dimethyl-4-(6-methyl-benzo[b]naphtho[2,3-d]thiophen-11-yl)-phenol], for which the “% Change from Control” value is on record as -38.31%.

Regarding `O=C(O)COc1ccc(-c2c3ccccc3c(Br)c3sc4ccccc4c23)cc1OCC(=O)O` [Example 93], the “% Change from Control” value is listed as -58.35%.

Take `O=C(O)COc1cccc(-c2c3ccccc3c(Br)c3sc4ccccc4c23)c1` [Example 90, [3-(6-Bromo-benzo[b]naphtho[2,3-d]thiophen-11-yl)-phenoxyl]-acetic acid]: the “% Change from Control” value is reported as -79.04%.

Consider `O=C1NC(=O)C(Oc2c(Br)cc(-c3c4ccccc4c(Br)c4sc5ccccc5c34)cc2Br)S1` (stereo not drawn) [Example 175, 5-[2,6-Dibromo-4-(6-bromo-benzo[b]naphtho[2,3-d]thiophen-11-yl)-phenoxy]-thiazolidinedione-2.4-dione], for which the “% Change from Control” value is on record as -69.20%.

As for `O=C(O)COc1c(Br)cc(-c2c3ccccc3c(Br)c3oc4ccccc4c23)c(O)c1Br` [Example 217], the “% Change from Control” value was -80.42%.

As for `O=C(O)COc1ccc(-c2c3ccc(OCC(=O)O)cc3cc3sc4ccccc4c23)cc1` [Example 76, [11-(4-Carboxymethoxy-phenyl)-benzo[b]naphtho[2.3-d]thiophen-8-yloxy]-acetic acid], the “% Change from Control” value is reported as -18.89%.

With `O=C(O)COc1c2ccccc2c(-c2cc(Br)c(O[C@H](Cc3ccccc3)C(=O)O)c(Br)c2)c2c1sc1ccccc12` [Example 185], the “% Change from Control” value is listed as -98.45%.

For the compound `O=C(O)COc1c(Br)cc(-c2c3ccccc3c(Br)c3c2c2ccccc2[s+]3[O-])cc1Br` (stereo not drawn) [Example 187], the “% Change from Control” value is on record as -57.64%.

`Oc1ccc(-c2c3ccccc3cc3sc4cc(O)ccc4c23)cc1` [Example 15, 11-(4-Hydroxy-phenyl)-benzo[b]naphtho[2,3-d]thiophen-3-ol]: the “% Change from Control” value is recorded as -43.68%.

Turning to `O=C(O)COc1ccc2c(c1)sc1cc3ccccc3c(-c3ccc(O[C@H](Cc4ccccc4)C(=O)O)cc3)c12` [Example 119], the “% Change from Control” value is recorded as -75.29%.

Consider `Oc1ccc(-c2c3ccc(O)cc3cc3sc4ccccc4c23)cc1` [Example 20, 11-(4-Hydroxy-phenyl)-benzo[b]naphtho[2,3-d]thiophen-8-ol], for which the “% Change from Control” value is listed as -26.86%.

Consider `Oc1c(Br)cc(-c2c3ccccc3c(Br)c3oc4ccccc4c23)c(O)c1Br` [Example 211, 2,6-Dibromo-4-(6-bromo-benzo[b]naphtho[2,3-d]furan-11-yl)-3-hydroxy-phenol], for which the “% Change from Control” value is listed as -36.82%.

`O=C(O)COc1ccc(-c2c3ccccc3cc3sc4ccccc4c23)cc1I` [Example 85, (4-Benzo[b]naphtho[2,3-d]thiophen-11-yl-2-iodo-phenoxy)-acetic acid]: the “% Change from Control” value is on record as -71.67%.

Consider `O=C(O)COc1c(F)ccc(-c2c3ccccc3c(Br)c3sc4ccccc4c23)c1F` [Example 201, [3-(6-Bromo-benzo[b]naphtho[2,3-d]thiophen-11-yl)-2.6-difluoro-phenoxy]-acetic acid], for which the “% Change from Control” value was -75.75%.

Regarding `BrC[C@@H](Cc1ccccc1)Oc1c(Br)cc(-c2c3ccccc3c(Br)c3sc4ccccc4c23)cc1Br` [Example 174, (R)-6-Bromo-11-[3,5-dibromo-4-(1-bromomethyl-2-phenyl-ethoxy)-phenyl]-benzo[b]naphtho[2,3-d]thiophene], the “% Change from Control” value stood at 0.39%.

As for `Cc1cc(-c2c3ccccc3c(C)c3sc4ccccc4c23)cc(C)c1OCC(=O)O` [Example 86, {2,6-Dimethyl-4-[6-methyl-(benzo[b]naphtho[2,3-d]thiophen-11-yl)]-phenoxy}-acetic acid], the “% Change from Control” value was -69.35%.
